The record followed here is patent publication US4197403A, “4-Aminosubstituted imidazo(1,2-A)quinoxalines” (Westwood Pharmaceuticals Inc., priority 1977, dated 1980).

For one assay, the system named is rat paw edema. Description: Rat paw edema assay, oral dosing. It counts as in vivo. Conditions: four hours after drug; for change in vivo at 100 mg/kg / change in vivo at 400 mg/kg: Rattus norvegicus, 4 h, read-out: % Difference from Control. The protocol: (§1) The anti-inflammatory activity of representative compounds of this invention was determined by the rat paw edema assay both by local administration (Table XI below) and by oral dosing (Table XII below). For the oral dosing, the procedure of C. A. Winter, E. A. Risley and G. W. Nuss, Proc. Soc. Exp. Biol. Med. 111, 544 (1962) was employed with measurement taken four hours after the drug was administered.
(§2) Tables XI and XII report the anti-inflammatory activity of the compounds tested as % difference in the edema or swelling as compared with the control. These Tables also give the response in many instances of more than one dose level of the same drug.

In assay [1] the test system is Trichophyton mentagrophytes (ATCC No. 8757 and 9129). As to the kind of experiment: Antifungal activity, agar dilution method: T. mentagrophytes. It counts as cell-based. Conditions: ATCC8757, agar dilution, read-out: Antifungal Activity, Parts Per Million Inhibitions of Fungus and Yeast Species: T. mentagrophytes. The protocol: (§3) Various compounds of this invention display antifungal and anti-yeast activity.
(§4) In Table IX below are listed the antifungal activity of a number of compounds encompassed in the present invention. These were determined by the agar dilution method as described in Chapters 2 and 3 of Methods in Microbiology, Vol. 7B, edited by J. R. Norris and D. W. Ribbons, Academic Press, New York, 1972.

The next assay concerns Trichophyton ajelloi. Description: Antifungal activity, agar dilution method: T. ajelloi. The assay is classed as cell-based. Conditions: Arthroderma uncinatum, read-out: Antifungal Activity, Parts Per Million Inhibitions of Fungus and Yeast Species: T. ajelloi. The protocol:
as §3, §4

In assay [2] the test system is Trichophyton rubrum (ATCC No. 10218 and 14001). Description: Antifungal activity, agar dilution method: T. rubrum. It counts as cell-based. Conditions: for Antifungal Activity, Parts Per Million Inhibitions of Fungus and Yeast Species: T. rubrum: agar dilution. The protocol: as §3, §4
Background: In agar dilution the substance is mixed into plates at graded concentrations.

Assay [3] can be described thus: Immunosuppressant activity (in words).
In assay [4] the test system is carrageenan rat paw edema. As to the kind of experiment: Rat paw edema assay, local administration. The assay is classed as in vivo. Conditions: injected directly into paw, 1 μg, read-out: % Difference from Control. The protocol: as §1
The local administration tests were carried out similarly except the irritant (carrageenan) and the test compound were injected simultaneously at time zero.
as §2

Another assay deals with Candida tropicalis. Description: Antifungal activity, agar dilution method: C. tropicalis. The assay is classed as cell-based. Conditions: read-out: Antifungal Activity, Parts Per Million Inhibitions of Fungus and Yeast Species: C. tropicalis. The protocol: as §3, §4

≈ marks a conversion by molar mass, not a printed value.

For `Cc1cccc(C(=O)Nc2ccccc2-n2ccnc2)c1` [Compound 36], the “% Difference from Control” value in the assay with rat paw edema (100 mg/kg) was -7%; with rat paw edema (400 mg/kg), -68%.

Turning to `O=C(Nc1ccccc1-n1ccnc1)c1cccc(Br)c1` [Compound 59], the MIC (in assay [1]; in the assay with Trichophyton ajelloi) was 100 µg/mL (≈ 292 µM) throughout.

For the compound `O=C(Nc1cccc(C(F)(F)F)c1)Nc1ccccc1-n1ccnc1` [Compound 82], the MIC was determined as 100 µg/mL (≈ 289 µM) in assay [2] (Trichophyton rubrum, ATCC10218, agar dilution, read-out: Antifungal Activity, Parts Per Million Inhibitions of Fungus and Yeast Species: T. rubrum); 100 µg/mL (≈ 289 µM) in assay [1]; 100 µg/mL (≈ 289 µM) with Trichophyton ajelloi.

As for `c1ccc2c(c1)ncc1nccn12` [Compound 109, imidazo[1,2-a]quinoxaline], in assay [3], the immunosuppressant activity entry was “lacks immunosuppressant activity”.

On to `CCCCCc1nc2ccccc2n2ccnc12` [Compound 114], for which the change in vivo at 0.001 mg in assay [4] was -68.2%.

In the case of `CCCCCCCc1nc2ccccc2n2ccnc12` [Compound 116], the MIC with Trichophyton ajelloi was 100 µg/mL (≈ 374 µM).

With `CCCCCCCCCCCCCCCc1nc2ccccc2n2ccnc12` [Compound 119], the “Antifungal Activity, Parts Per Million Inhibitions of Fungus and Yeast Species: T. rubrum” value in assay [2] came to 8 Parts Per Million.

Regarding `CCCCCCCCCCCCCCCCCc1nc2ccccc2n2ccnc12` [Compound 120], in assay [2], the “Antifungal Activity, Parts Per Million Inhibitions of Fungus and Yeast Species: T. rubrum” value is given as 1 Parts Per Million.

Take `FC(F)(F)c1nc2ccccc2n2ccnc12` [Compound 122]: the change in vivo at 100 mg/kg with rat paw edema (100 mg/kg) is -17%. The change in vivo at 400 mg/kg with rat paw edema (400 mg/kg) was -68%.

For the compound `c1ccc(-c2nc3ccccc3n3ccnc23)cc1` [Compound 131, 4-phenylimidazo[1,2-a]quinoxaline], in assay [3], the immunosuppressant activity result is “only minor activity”.

For `CC(=O)Nc1ccc(-c2nc3ccccc3n3ccnc23)cc1` [Compound 155], the change in vivo at 100 mg/kg with rat paw edema (100 mg/kg) was 70%. Further, in the assay on rat paw edema (400 mg/kg), the change in vivo at 400 mg/kg is -25%.

With `CC(=O)Oc1ccc(-c2nc3ccccc3n3ccnc23)cc1` [Compound 163], in the assay with Candida tropicalis, the MIC was 100 µg/mL (≈ 330 µM).
